Values quoted from earlier work in PMC8124668, “Preclinical Assessment Addressing Intravenous Administration of a [^68Ga]Ga-PSMA-617 Microemulsion: Acute In Vivo Toxicity, Tolerability, PET Imaging, and Biodistribution” (Molecules, 2021).

Test system: male rats
Design: method as in PMID 28283702
Conditions: once weekly IV bolus on days 1, 8, 15 and 22, at 400 mg/kg

O=C(O)CCC(NC(=O)NC(CCCCNC(=O)C(Cc1ccc2ccccc2c1)NC(=O)C1CCC(CNC(=O)CN2CCN(CC(=O)O)CCN(CC(=O)O)CCN(CC(=O)O)CC2)CC1)C(=O)O)C(=O)O (stereo not shown) [PSMA-617, 2-[3-(1-Carboxy-5-{3-naphthalen-2-yl-2-[(4-{[2-(4,7,10-tris-carboxymethyl-1,4,7,10-tetraaza-cyclododec-1-yl)-acetylamino]-methyl}-cyclohexanecarbonyl)-amino]-propionylamino}-pentyl)-ureido]-pentanedioic acid]
local or systemic intolerance reactions: No signs of local or systemic intolerance reactions
